Results as given in PubChem BioAssay (NCI).
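Tested at 5 concentrations; 48 h exposure; 96-well plates; endpoints linearly interpolated, else capped at highest concentration. Abbreviation: GI50, concentration required for 50% inhibition of growth. TGI marks complete inhibition of growth.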

What was measured:
Assay in all cases: NCI-60 cell line screen, 48 h
[1] = tested on: U251 CNS
[2] = tested on: MCF7 breast
[3] = tested on: SN12C renal
[4] = tested on: PC-3 prostate
[5] = tested on: SW-620 colon
[6] = tested on: HS 578T breast
[7] = tested on: HOP-62 NSCLC
[8] = tested on: SNB-75 CNS
[9] = tested on: SF-295 CNS
[10] = tested on: NCI-H460 lung
[11] = tested on: OVCAR-3 ovarian
[12] = tested on: HT29 colon
[13] = tested on: A498 renal
[14] = tested on: HCT-116 colon
[15] = tested on: M14 melanoma
[16] = tested on: 786-0 renal
[17] = tested on: KM12 colon
[18] = tested on: UACC-62 melanoma
[19] = tested on: EKVX NSCLC
[20] = tested on: SK-MEL-28 melanoma
[21] = tested on: OVCAR-4 ovarian
[22] = tested on: NCI-H226 lung
[23] = tested on: SF-268 CNS
[24] = tested on: NCI/ADR-RES ovarian
[25] = tested on: T-47D breast
[26] = tested on: SK-OV-3 ovarian
[27] = tested on: NCI-H23 lung
[28] = tested on: OVCAR-5 ovarian
[29] = tested on: UACC-257 melanoma
[30] = tested on: MDA-MB-231 breast
[31] = tested on: CCRF-CEM leukemia
[32] = tested on: HOP-92 NSCLC
[33] = tested on: LOX IMVI melanoma
[34] = tested on: ACHN renal
[35] = tested on: OVCAR-8 ovarian
[36] = tested on: RPMI-8226 leukemia
[37] = tested on: NCI-H522 lung
[38] = tested on: MDA-MB-435
[39] = tested on: RXF 393 renal
[40] = tested on: HCC-2998 colon
[41] = tested on: A549 NSCLC
[42] = tested on: SK-MEL-5 melanoma
[43] = tested on: BT-549 breast
[44] = tested on: DU-145 prostate
[45] = tested on: UO-31 renal
[46] = tested on: SNB-19 CNS
[47] = tested on: IGROV1 ovarian
[48] = tested on: HCT-15 colon
[49] = tested on: CAKI-1 renal
[50] = tested on: COLO 205 colon
[51] = tested on: TK-10 renal
[52] = tested on: SK-MEL-2 melanoma
[53] = tested on: MALME-3M melanoma
[54] = tested on: MOLT-4 leukemia
[55] = tested on: HL-60(TB) leukemia
[56] = tested on: SF-539 CNS
[57] = tested on: K-562 leukemia
[58] = tested on: SR leukemia

Compound `CC/C=C\C[C@H](O)C/C=C1/C(=O)C=C[C@@H]1C/C=C\CCCC(N)=O` has a GI50 [1] of 1.5 µM, a TGI [1] of 4.12 µM and a GI50 [2] of 0.626 µM. For the same compound, the TGI [2] was 11.7 µM, the GI50 [3] was 2.32 µM and the TGI [3] was 6.43 µM. For the same compound, the GI50 [4] was 2.15 µM, the TGI [4] was 5.36 µM and the GI50 [5] was 1.58 µM. For the same compound, the TGI [5] was 5.33 µM, the GI50 [6] was 5.29 µM and the TGI [6] was 32.4 µM. It also gave a GI50 [7] of 2.99 µM, a TGI [7] of 7.77 µM and a GI50 [8] of 10.5 µM. For the same compound, the TGI [8] was 22.3 µM, the GI50 [9] was 2.52 µM and the TGI [9] was 6.23 µM. It also gave a GI50 [10] of 2.27 µM, a TGI [10] of 6.97 µM and a GI50 [11] of 1.26 µM. The TGI [11] was 4.22 µM, the GI50 [12] was 1.89 µM and the TGI [12] was 3.7 µM. The GI50 [13] was 2.9 µM, the TGI [13] was 7.07 µM and the GI50 [14] was 1.02 µM. It also gave a TGI [14] of 2.47 µM, a GI50 [15] of 2.31 µM and a TGI [15] of 6.89 µM. For the same compound, the GI50 [16] was 1.94 µM, the TGI [16] was 3.62 µM and the GI50 [17] was 1.68 µM. It also gave a TGI [17] of 4.21 µM, a GI50 [18] of 1.36 µM and a TGI [18] of 3.36 µM. For the same compound, the GI50 [19] was 4.29 µM, the TGI [19] was 15.7 µM and the GI50 [20] was 1.93 µM. For the same compound, the TGI [20] was 4.26 µM, the GI50 [21] was 3.45 µM and the TGI [21] was 16.8 µM. It also gave a GI50 [22] of 2.34 µM, a TGI [22] of 5.48 µM and a GI50 [23] of 2.96 µM. It also gave a TGI [23] of 11.7 µM, a GI50 [24] of 2.81 µM and a TGI [24] of 12.3 µM. The GI50 [25] was 3.14 µM, the TGI [25] was 15.3 µM and the GI50 [26] was 3.96 µM. The TGI [26] was 12.8 µM, the GI50 [27] was 2.13 µM and the TGI [27] was 5.27 µM. The GI50 [28] was 3.89 µM, the TGI [28] was 11.8 µM and the GI50 [29] was 1.97 µM. The TGI [29] was 5.3 µM, the GI50 [30] was 4.2 µM and the TGI [30] was 15.2 µM. For the same compound, the GI50 [31] was 1.38 µM, the TGI [31] was 8.07 µM and the GI50 [32] was 3.15 µM. The TGI [32] was 6.74 µM, the GI50 [33] was 0.35 µM and the TGI [33] was 1.69 µM. For the same compound, the GI50 [34] was 1.64 µM, the TGI [34] was 3.35 µM and the GI50 [35] was 3.03 µM. It also gave a TGI [35] of 11.4 µM, a GI50 [36] of 1.14 µM and a TGI [36] of 5.24 µM. It also gave a GI50 [37] of 1.3 µM, a TGI [37] of 2.67 µM and a GI50 [38] of 1.72 µM. The TGI [38] was 5.24 µM, the GI50 [39] was 1.94 µM and the TGI [39] was 3.69 µM. The GI50 [40] was 1.98 µM, the TGI [40] was 3.7 µM and the GI50 [41] was 2.49 µM. The TGI [41] was 6.01 µM, the GI50 [42] was 1.56 µM and the TGI [42] was 2.97 µM. The GI50 [43] was 2.17 µM, the TGI [43] was 5.54 µM and the GI50 [44] was 2.5 µM. The TGI [44] was 11 µM, the GI50 [45] was 1.63 µM and the TGI [45] was 3.42 µM. The GI50 [46] was 7.43 µM, the TGI [46] was 21.6 µM and the GI50 [47] was 3.09 µM. It also gave a TGI [47] of 12.2 µM, a GI50 [48] of 1.74 µM and a TGI [48] of 5.69 µM. It also gave a GI50 [49] of 1.62 µM, a TGI [49] of 3.92 µM and a GI50 [50] of 2.11 µM. For the same compound, the TGI [50] was 4.72 µM, the GI50 [51] was 3.16 µM and the TGI [51] was 6.95 µM. The GI50 [52] was 2.31 µM, the TGI [52] was 5.69 µM and the GI50 [53] was 2.06 µM. For the same compound, the TGI [53] was 5.23 µM.

`O=[N+]([O-])/C=C\c1ccc2c(c1)OCO2` gave a GI50 [1] of 1.95 µM, a TGI [1] of 5.02 µM and a GI50 [2] of 1.99 µM. It also gave a TGI [2] of 10.4 µM, a GI50 [3] of 11.4 µM and a TGI [3] of 30.3 µM. For the same compound, the GI50 [4] was 2.62 µM, the TGI [4] was 7.34 µM and the GI50 [5] was 2.07 µM. The TGI [5] was 4.91 µM, the GI50 [6] was 3.47 µM and the TGI [6] was 19.9 µM. The GI50 [7] was 13.3 µM, the TGI [7] was 27 µM and the GI50 [8] was 10.3 µM. It also gave a TGI [8] of 22.2 µM, a GI50 [9] of 11.5 µM and a TGI [9] of 26.5 µM. It also gave a GI50 [10] of 10.6 µM, a TGI [10] of 27.5 µM and a GI50 [11] of 4.1 µM. The TGI [11] was 15.2 µM, the GI50 [12] was 2.07 µM and the TGI [12] was 4.89 µM. The GI50 [13] was 1.37 µM, the TGI [13] was 8.14 µM and the GI50 [14] was 1.42 µM. For the same compound, the TGI [14] was 2.95 µM, the GI50 [15] was 2.08 µM and the TGI [15] was 4.77 µM. The GI50 [16] was 1.84 µM, the TGI [16] was 3.52 µM and the GI50 [17] was 2.04 µM. The TGI [17] was 4.43 µM, the GI50 [18] was 15.3 µM and the TGI [18] was 31.8 µM. The GI50 [19] was 14.4 µM, the TGI [19] was 34.9 µM and the GI50 [20] was 4.7 µM. For the same compound, the TGI [20] was 16.4 µM, the GI50 [21] was 11.8 µM and the TGI [21] was 24.2 µM. The GI50 [22] was 13.8 µM, the TGI [22] was 53 µM and the GI50 [23] was 10.5 µM. It also gave a TGI [23] of 22.4 µM, a GI50 [24] of 10.3 µM and a TGI [24] of 29.3 µM. The GI50 [25] was 5.27 µM, the TGI [25] was 26.2 µM and the GI50 [54] was 17.6 µM. The TGI [54] was 67.7 µM, the GI50 [26] was 12.1 µM and the TGI [26] was 24.4 µM. It also gave a GI50 [27] of 2.52 µM, a TGI [27] of 7.38 µM and a GI50 [28] of 11.5 µM. It also gave a TGI [28] of 26.4 µM, a GI50 [29] of 1.64 µM and a TGI [29] of 3.77 µM. For the same compound, the GI50 [30] was 12.1 µM, the TGI [30] was 27.5 µM and the GI50 [31] was 3.9 µM. The TGI [31] was 25 µM, the GI50 [32] was 12.5 µM and the TGI [32] was 30.9 µM. For the same compound, the GI50 [33] was 1.83 µM, the TGI [33] was 4.15 µM and the GI50 [34] was 4.21 µM. It also gave a TGI [34] of 16.2 µM, a GI50 [35] of 2.86 µM and a TGI [35] of 10.4 µM. The GI50 [36] was 1.77 µM, the TGI [36] was 5.07 µM and the GI50 [38] was 2.16 µM. The GI50 [39] was 1.66 µM, the TGI [39] was 3.1 µM and the GI50 [41] was 2.34 µM. For the same compound, the TGI [41] was 5.23 µM, the GI50 [42] was 3.68 µM and the TGI [42] was 13.9 µM. It also gave a GI50 [43] of 2.15 µM, a TGI [43] of 4.8 µM and a GI50 [44] of 3.07 µM. It also gave a TGI [44] of 10.2 µM, a GI50 [55] of 10.2 µM and a TGI [55] of 46.5 µM. It also gave a GI50 [45] of 1.59 µM, a TGI [45] of 3.2 µM and a GI50 [56] of 3.08 µM. It also gave a TGI [56] of 9.35 µM, a GI50 [46] of 13.1 µM and a TGI [46] of 30.8 µM. The GI50 [47] was 1.98 µM, the TGI [47] was 4.67 µM and the GI50 [48] was 2.46 µM. For the same compound, the TGI [48] was 6.68 µM, the GI50 [49] was 1.69 µM and the TGI [49] was 7.36 µM. The GI50 [50] was 3.71 µM, the TGI [50] was 13.4 µM and the GI50 [51] was 3.16 µM. For the same compound, the TGI [51] was 10 µM, the GI50 [57] was 3.16 µM and the TGI [57] was greater than 100 µM. It also gave a GI50 [58] of 2.73 µM, a TGI [58] of 8.06 µM and a GI50 [52] of 2.2 µM. The TGI [52] was 4.99 µM, the GI50 [53] was 14.6 µM and the TGI [53] was 32.9 µM.
